Like-named read-outs stand apart in the source and are kept apart here.
Legend:
[1] = test system: NCIH460 large cell lung cancer cell line; experiment: In vitro anticancer activity, MTT assay; assay type: cell-based, human; settings: for IC50: Homo sapiens, NCI-H460, large cell lung cancer cell line, MTT, 48 h continuous drug exposure; for in-vitro cytotoxicity in large cell lung cancer cell line (NCIH460): result in words
Method: (§1) In vitro biological activity studies were carried out at the pharmacology division, IICT, Hyderabad. The compounds were evaluated for in vitro anticancer activity against eight tumour cell lines derived from […] cancer types (breast, lung, liver, skeletal, kidney, prostrate, small intestine) as shown in Table 2. For each compound, dose response curves for each cell line were measured at a minimum of five concentrations at 10 fold dilutions. A protocol of 48 h continuous drug exposure was used and a MTT assay was used to estimate cell viability or growth. The concentration causing 50% inhibition (IC50) compared with the control was calculated. Some of the compounds have been evaluated for their in vitro cytotoxicity in eight cell lines from seven human cancer types. The results are expressed as IC50 determined relative to that of untreated control cells (Table-2).

[2] = test system: HEPG2 liver cancer cell line; experiment: In vitro anticancer activity, MTT assay; assay type: cell-based, human; settings: for IC50: Homo sapiens, HepG2; for in-vitro cytotoxicity in liver cancer cell line (HEPG2): result in words
Method: as §1

[3] = test system: A549 lung cancer cell line; experiment: In vitro anticancer activity, MTT assay; assay type: cell-based, human; settings: for IC50: Homo sapiens, A549; for in-vitro cytotoxicity in lung cancer cell line (A549): result in words
Method: as §1

[4] = test system: PC-3 prostrate cancer cell line; experiment: In vitro anticancer activity, MTT assay; assay type: cell-based, human; settings: for IC50: Homo sapiens, prostrate cancer cell line, MTT, 48 h continuous drug exposure; for in-vitro cytotoxicity in prostrate cancer cell line (PC-3): result in words
Method: as §1

[5] = test system: MCF7 breast cancer cell line; experiment: In vitro anticancer activity, MTT assay; assay type: cell-based, human; settings: for IC50: Homo sapiens, MCF7, breast cancer cell line, MTT, 48 h continuous drug exposure; for in-vitro cytotoxicity in breast cancer cell line (MCF-7): result in words
Method: as §1

L-6 = experiment: In vitro anticancer activity, MTT assay; assay type: cell-based; settings: skeletal cancer cell line; MTT, 48 h continuous drug exposure
Method: as §1

[6] = test system: L-6 skeletal cancer cell line; experiment: In vitro anticancer activity, MTT assay; assay type: cell-based; settings: result in words
Method: as §1

[7] = test system: IEC-6 small intestine cell line; experiment: In vitro anticancer activity, MTT assay; assay type: cell-based; settings: for IC50: IEC-6; for in-vitro cytotoxicity in small intestine cancer cell line (IEC-6): result in words
Method: as §1

[8] = In vitro anticancer activity, MTT assay; assay type: cell-based; settings: COS-1; kidney cancer cell line; MTT, 48 h continuous drug exposure
Method: as §1

[9] = test system: COS-1 kidney cancer cell line; experiment: In vitro anticancer activity, MTT assay; assay type: cell-based; settings: for IC50: COS-1, range over the listed compounds, exposure period of at least 48 hrs, read-out: IC50 against kidney cancer cell lines; for in-vitro cytotoxicity in kidney cancer cell line (COS-1): result in words
Method: as §1

calf thymus DNA (CT-DNA) = experiment: Thermal denaturation studies with duplex-form calf thymus DNA; assay type: binding; settings: [PND]/[DNA] molar ratio 1:5, CT-DNA 100 μM, ligand 20 μM, aqueous sodium phosphate buffer pH 7; for ΔTm after incubation at 37° C. for 0 hr: 0 hr at 37° C.; for ΔTm after incubation at 37° C. for 18 hrs: 18 hrs at 37° C.
Method: Compounds have been subjected to thermal denaturation studies with duplex-form calf thymus DNA (CT-DNA) using an modification of a reported procedure (Newman, M. S. Carcinog-compr. Surv. 1976, 1, 203; (b) Hecht, S. S.; Loy, M.; Hoffman, Carcinog-compr. Surv. 1976, 1, 325). Working solutions in aqueous buffer (10 mM NaH2PO4/Na2HPO4, 1 mM Na2EDTA, pH 7.00+0.01) containing CT-DNA (100 μm in phosphate) and the PND (pyrrolo naphtha diazepine) (20 μm) have been prepared by addition of concentrated PND (pyrrolo naphtha diazepine) solutions in DMSO to obtain a fixed [PND]/[DNA] molar ratio of 1:5. The DNA-PND (pyrrolo naphtha diazepine) solutions have been incubated at 37° C. for 0 and 18 h prior to analysis. Samples have been monitored at 260 nm using a Beckman DU-800 spectrophotometer fitted with high performance temperature controller, and heated at 1° C. min in the 40-110° C. range. DNA helix→coil transition temperatures (Tm) have been obtained from the maxima in the d(A260)/dT derivative plots. Drug-induced alterations in DNA melting behavior are given by: ΔTm=Tm(DNA+PND)−Tm(DNA alone), where the Tm value for the PND-free CT-DNA is 69.1±0.01.
The DNA binding activity for these novel substituted piperazine linked pyrrolo naphtho diazepine hybrids has been examined by thermal denaturation studies using calf thymus (CT) DNA. […] The data for some of the compounds are included in Table 1 for comparison.

[10] = liver cancer cell line, MTT, 48 h continuous drug exposure, read-out: IC50 HEPG2
[11] = range over the listed compounds, exposure period of at least 48 hrs, read-out: IC50 against liver cancer cell lines
[12] = lung cancer cell line, MTT, 48 h continuous drug exposure, read-out: IC50 A549
[13] = range over the listed compounds, exposure period of at least 48 hrs, read-out: IC50 against lung cancer cell lines
[14] = range over the listed compounds, exposure period of at least 48 hrs, read-out: IC50 against small intestine cancer cell lines
[15] = small intestine cell line, MTT, 48 h continuous drug exposure, read-out: IC50 IEC-6

Compound | IC50 [1] [nM] | in-vitro cytotoxicity in large cell lung cancer cell line (NCIH460) [1] | IC50 [2, 10] [nM] | IC50 [2, 11] [nM] | in-vitro cytotoxicity in liver cancer cell line (HEPG2) [2] | IC50 [3, 12] [nM] | IC50 [3, 13] [nM] | in-vitro cytotoxicity in lung cancer cell line (A549) [3] | IC50 [4] [nM] | in-vitro cytotoxicity in prostrate cancer cell line (PC-3) [4] | IC50 [5] [nM] | in-vitro cytotoxicity in breast cancer cell line (MCF-7) [5] | IC50 (L-6) [nM] | in-vitro cytotoxicity in skeletal cancer cell line (L-6) [6] | IC50 [7, 14] [nM] | IC50 [7, 15] [nM] | in-vitro cytotoxicity in small intestine cancer cell line (IEC-6) [7] | IC50 [8] [nM] | IC50 [9] [nM] | in-vitro cytotoxicity in kidney cancer cell line (COS-1) [9] | further results
COc1cc2cc3c(cc2cc1OCCN1CCN(c2ccccc2)CC1)C(=O)N1CCC[C@H]1C=N3 [19a, 9-Methoxy-8-[2-(4-phenylpiperazino)ethoxy]-(3aS)-1,2,3,13a-tetrahydro-5H-pyrrolo[2,1-c][1,4]naphthodiazepin-5-one] | 6 | exhibiting in-vitro cytotoxicity | 40 | 20 to 7320 | exhibiting in-vitro cytotoxicity | 9900 | 20 to 11900 | exhibiting in-vitro cytotoxicity | 300 | exhibiting in-vitro cytotoxicity | 180 | exhibiting in-vitro cytotoxicity | 260 | exhibiting in-vitro cytotoxicity | 10 to 5840 | 10 | exhibiting in-vitro cytotoxicity | 800 | 800 to 4320 | exhibiting in-vitro cytotoxicity | ΔTm after incubation at 37° C. for 0 hr (calf thymus DNA (CT-DNA)): 6.5 °C; ΔTm after incubation at 37° C. for 18 hrs (calf thymus DNA (CT-DNA)): 7.3 °C
COc1cc2cc3c(cc2cc1OCCN1CCN(c2ccccn2)CC1)C(=O)N1CCC[C@H]1C=N3 [23a, 9-Methoxy-8-(2-[4-(2-pyridyl)piperazino]ethoxy)-(13aS)-1,2,3,13a-tetrahydro-5H-pyrrolo[2,1-c][1,4]naphthodiazepin-5-one] | 110 | exhibiting in-vitro cytotoxicity | 40 | 20 to 7320 | exhibiting in-vitro cytotoxicity | 1990 | 20 to 11900 | exhibiting in-vitro cytotoxicity | 100 | exhibiting in-vitro cytotoxicity | 20 | exhibiting in-vitro cytotoxicity | 740 | exhibiting in-vitro cytotoxicity | 10 to 5840 | 10 | exhibiting in-vitro cytotoxicity | 4320 | 800 to 4320 | exhibiting in-vitro cytotoxicity | ΔTm after incubation at 37° C. for 0 hr (calf thymus DNA (CT-DNA)): 5.0 °C; ΔTm after incubation at 37° C. for 18 hrs (calf thymus DNA (CT-DNA)): 6.8 °C
